Series [1] concerns HCT-116 human colon carcinoma cell line. Put plainly: WST-1 cell viability assay, HCT-116. The series is classed as cell-based. To be noted: Homo sapiens, HCT-116; WST-1, 24 h treatment, mean ± S.D of three independent experiments. An excerpt: (§1) The synthesized compounds were screened for their cytotoxicity on five cancer cell lines, namely SK-OV-3, MCF-7, MDA-MB-231, HCT-116 and RKO, using a WST colorimetric assay. The assay principle is based upon the reduction of the tetrazolium salt WST-1 to formazan by cellular mitochondrial dehydrogenases present in viable cells. […] Among the latter compounds the benzohydrazide derivative 9a emerged with the lowest IC50 in this study against MCF-7 cells compared to 5-FU. […] Based on the fact that 9a had less cytotoxic effects on normal breast epithelial cells it was subjected to further studies.
(§2) The following cell lines were used for the screening stage, obtained from the American Type Culture Collection (ATCC, Manassas, VA, USA); SK-OV-3 (HTB-77), MCF-12A (ATCC CRL-10782), MDA-MB-231 (ATCC HTB-26), HCT-116 (CCL-247), RKO (CRL-2577) and sub-culturing of the above cell lines was conducted in 75 cm^2 flasks. The old culture media was removed and discarded after assessing the confluency of the cells and the cells were rinsed with 2–3 mL diluted trypsin (1×) (trypsin/EDTA solution consists of 0.025% trypsin and 0.01% EDTA in PBS), for about 5 minutes for complete detachment. The cells were observed under the inverted microscope until the cell layer is completely dispersed. 75 cm^2 flasks were prepared and 16 mL of DMEM media for SK-OV-3, MCF-7, MDA-MB-231, (DMEM 4500 mg glucose) and RPMI media for HCT-116 were added to each flask. The cells were aspirated gently and added to the flasks. DMEM 4500 mg/L high glucose with 10% FBS, 5% streptomycin and penicillin, RPMI 1640 (prepared by adding 5% heat-inactivated FCS and 2 mm glutamine) were used. DMEM was also used for MCF-12A cells with the addition of human epidermal growth factor 20 ng/mL, insulin 0.01 mg/mL and hydrocortisone 500 ng/mL.
(§3) The synthesized compounds were screened for their anti-proliferative activity using 5-FU (F6627-1G, Sigma-Aldrich, St. Louis, MO, USA) as reference compound. A concentration of 0.4% DMSO was used in all experiment after ensuring 100% viability of the cell lines with this concentration. A 25 mM stock concentration of all compounds was prepared for further studies and analysis.
(§4) Cells were trypsinized and placed in a 15 mL Falcon tube, the cells were centrifuged for 3 min at 1000 rpm. Trypsin is decanted using a sterile pipette and then the pellet is loosened by flicking the tube few times then 5–10 mL warm DMEM or RPMI were added to the Falcon tube and the pellet is resuspended. Cell count was done next by taking 10 μL of the suspension into the cell counting slide and read under 10× cells/mL. A cell stock of 50,000 cells/mL was prepared for the 96 wells. Cells (100 μL) were added to each well using a sterile pipette each time to ensure consistency. The experiment was planned ahead of time using excel sheet, 3–6 wells were reserved as blank media while 3–6 wells for vehicle (DMSO). The plate was incubated for 24 h for compound treatment step. DMEM media was used to prepare different dilutions of the compounds. The old DMEM media was removed from the wells using sterile pipette in the hood and the media was replaced with 100 μL media with each compound. The plate was incubated for 24 h. After 24 h incubation, WST-1 reagent (Sigma) was added to each well and then the plate was incubated for 1 h before measuring the absorbance using VICTOR™ Multilabel Plate Reader (Perkin Elmer, Beaconsfield, UK). The absorbance of the colored solution can be quantified by measuring at a certain wavelength (usually between 500–600 nm), in this experiment the first reading was conducted at 540 nm and the second reading at 690 nm for the reference wavelength. The percentage of cell viability was determined as the ratio of the absorbance of the sample vs the control. Three independent experiments were performed. […] 5-Florouracil (Sigma-Aldrich, F6627-1G) was used as reference standard.
(Tetrazolium assays rely on reduction of a dye to a coloured formazan, in cell work by metabolically active cells.)

Series [2] concerns MCF-7 human breast adenocarcinoma cell line. Put plainly: WST-1 cell viability assay, MCF-7. It is filed as cell-based. To be noted: Homo sapiens, MCF7, 24 h, WST-1, 24 h treatment, mean ± S.D of three independent experiments.
From the text: as §1, §2, §3, §4

Series [3] deals with MDA-MB-231 human breast adenocarcinoma cell line. Description: WST-1 cell viability assay, MDA-MB-231. The series is classed as cell-based. To be noted: Homo sapiens, MDA-MB-231; WST-1, 24 h treatment, mean ± S.D of three independent experiments.
From the text: as §1, §2, §3, §4

The test system of series [4] is RKO human colon carcinoma cell line. Put plainly: WST-1 cell viability assay, RKO. The series is classed as cell-based. To be noted: Homo sapiens, Colon carcinoma cell; WST-1, 24 h treatment, mean ± S.D of three independent experiments.
From the text: as §1, §2, §3, §4

Series [5] has as its system SK-OV-3 human ovarian carcinoma cell line. Description: WST-1 cell viability assay, SK-OV-3. The series is classed as cell-based. To be noted: Homo sapiens, SK-OV-3; WST-1, 24 h treatment, mean ± S.D of three independent experiments.
From the text: as §1, §2, §3, §4

Broadly, the melting point is the temperature, or range, at which the solid turns liquid. As usually defined, the IC50 is the concentration that gives 50% inhibition. A low value points to greater potency. For `COc1ccc(-c2cc(-c3ccc(OC)c(OC)c3)c(C#N)c(OCC(=O)NNS(=O)(=O)c3ccccc3)n2)cc1OC` [Compound 10a, N'-[2-(3-cyano-4,6-bis(3,4-dimethoxyphenyl)pyridin-2-yloxy)acety]benzenesulfohydrazide], the melting point lay in the range of 120 to 122 °C. The same molecule showed an IC50 in series [1] of 21.8 ± 0.85 µM. In series [2], this molecule showed an IC50 of 13.4 ± 0.98 µM. For the same molecule, half-maximal inhibition in series [3] (IC50) required 26.8 ± 0.33 µM. In addition, the half-maximal inhibitory concentration (IC50) in series [4] was found to be 12.1 ± 1.26 µM. The IC50 in series [5] was 11.34 ± 0.02 µM.

On to `COc1ccc(S(=O)(=O)NNC(=O)COc2nc(-c3ccc(OC)c(OC)c3)cc(-c3ccc(OC)c(OC)c3)c2C#N)cc1` [Compound 10b, N'-[2-(3-cyano-4,6-bis(3,4-dimethoxyphenyl)pyridin-2-yloxy)acetyl]-4-methoxybenzenesulfohydrazide], for which the melting point was in the range of 190 to 192 °C. Besides, the IC50 in series [1] stood at 16.1 ± 1.07 µM. The IC50 in series [2] is 8.12 ± 0.47 µM. This molecule also came in with an IC50 in series [3] of 22.4 ± 1.71 µM. The molecule further came in with an IC50 in series [4] of 15.7 ± 0.86 µM. In series [5], this molecule showed an IC50 of 9.17 ± 0.38 µM.

Consider `COc1ccc(-c2cc(-c3ccc(OC)c(OC)c3)c(C#N)c(OCC(=O)n3nc(C)cc3C)n2)cc1OC` [Compound 11, 4,6-Bis(3,4-dimethoxyphenyl)-2-(2-(3,5-dimethyl-1H-pyrazol-1-yl)-2-oxoethoxy)pyridine-3-carbonitrile], for which the melting point lay within 161 to 163 °C. It took 33.9 ± 0.87 µM to reach half-maximal inhibition in series [1] (IC50). In addition, the IC50 in series [2] was more than 50 µM. The molecule also came in with an IC50 in series [3] of more than 50 µM. The molecule further showed an IC50 in series [4] of more than 50 µM. This molecule also gave an IC50 in series [5] of 26.2 ± 0.95 µM.

In the case of `COc1ccc(-c2cc(-c3ccc(OC)c(OC)c3)c(C#N)c(OCC(=O)N3N=C(C)CC3=O)n2)cc1OC` [Compound 12, 4,6-bis(3,4-Dimethoxyphenyl)-2-(2-(3-methyl-5-oxo-4,5-dihydro-1H-pyrazol-1-yl)-2-oxoethoxy)pyridine-3-carbonitrile], the melting point lay in the range of 189 to 190 °C. In series [1], the IC50 was found to be 40.4 ± 1.76 µM. In series [2], this molecule gave an IC50 of more than 50 µM. The same molecule returned an IC50 in series [3] of more than 50 µM. Further, in series [4], the IC50 was more than 50 µM. The molecule also displayed an IC50 in series [5] of 20.3 ± 1.72 µM.

In turn, `COC(=O)c1c(SC)nn(C(=O)COc2nc(-c3ccc(OC)c(OC)c3)cc(-c3ccc(OC)c(OC)c3)c2C#N)c1N` [Compound 13a, Methyl 5-amino-1-{[(3-cyano-4,6-bis(3,4-dimethoxyphenyl)pyridin-2-yl)oxy]acetyl}-3-(methylsulfanyl)-1H-pyrazole-4-carboxylate] gave a melting point of 184 to 186 °C. For the same molecule, in series [1], the IC50 was determined as 36.3 ± 1.71 µM. Also, the half-maximal inhibitory concentration (IC50) in series [2] was more than 50 µM. The molecule also had an IC50 in series [3] of more than 50 µM. For the same molecule, the IC50 in series [4] is more than 50 µM. In addition, in series [5], the IC50 is more than 50 µM.

In turn, `COc1ccc(-c2cc(-c3ccc(OC)c(OC)c3)c(C#N)c(OCC(=O)n3nc(SC)c(C#N)c3N)n2)cc1OC` [Compound 13b, 2-{2-[5-Amino-4-cyano-3-(methylsulfanyl)-1H-pyrazol-1-yl]-2-oxoethoxy}-4,6-bis(3,4-dimethoxyphenyl)-pyridine-3-carbonitrile] displayed a melting point of 202 to 204 °C. The same molecule came in with an IC50 in series [1] of 30.1 ± 0.76 µM. The molecule also gave an IC50 in series [2] of more than 50 µM. In series [3], this molecule returned a half-inhibitory concentration (IC50) of more than 50 µM. In addition, the IC50 in series [4] was more than 50 µM. Further, the IC50 in series [5] was more than 50 µM.

For the origin of these results see article PMC6274259, “New 3-Cyano-2-Substituted Pyridines Induce Apoptosis in MCF 7 Breast Cancer Cells” (Molecules, 2016).
